Data set [1] has as its system healthy dog hearts after 20 minute normothermic global myocardial ischemia. The note with it: D-Ribose from reperfusion for at least four days; cited from earlier work.
Data set [2] deals with recovery from general anaesthesia. Briefly: anecdotal reports, non-cardiac surgery with general anaesthesia. The note with it: person, vs first operation. In kind it is in vivo, human. An excerpt:
A. Anecdotal Results from Non-Cardiac Surgery with General Anaesthesia. […] For example, a person underwent two hip replacement operations, five months apart. With the second operation, they began taking oral ribose immediately after their recovery from anaesthesia. Their recovery to a feeling of alertness and energy was more rapid than after the first operation. Furthermore, their level of pain was less. Likewise, a person also underwent two knee replacement operations. With the second operation, they self-administered D-Ribose pre- and postoperatively. Their recovery to a feeling of alertness and energy was more rapid than after the first operation. Bauer et al. (Z. Geb. Neonatal 2001 May-June, 205(3):80-85) studied the efficacy of oral glucose for treating procedural pain in neonates. […] The authors proposed that the orogustatory stimulation by the sweet taste caused an endorphin release. It is not known whether the result seen was due to the local effect or to a systemic effect of glucose.

Data set [3] deals with patients selected for OCBP revascularization. Nature of the data set: presurgical oral ribose loading, off cardiopulmonary bypass (OCBP) revascularization trial. In kind it is in vivo, human. The note with it: oral D-ribose preoperatively (24 patients) vs no ribose (20), baseline to post-operative, p<0.028. An excerpt: Patients with stable coronary artery disease or patients presenting with acute myocardial infarction may undergo revascularization using an “off” cardiopulmonary bypass procedure (“OCBP”). This procedure avoids the deleterious effects of cross-clamping in patients who can be selected for the procedure. The selection criteria include: accessibility of the grafts; number of the grafts; condition of the patient. When the area to be revascularized is at the back of the heart, the heart will need to be handled and rotated, which would interfere with the beating of the heart. If several grafts are needed, the time of operation is prolonged and the patient's heart will need to support circulation for a long time. Finally, a poorly functioning heart will need the assistance of the pump to support circulation. Nevertheless, in properly selected patients, the benefits of avoiding cross-clamping are substantial.
Forty-four adult patients were enrolled in a trial. At least one-third of the patents had sustained an acute myocardial infarction prior to presentation and pre-operative ejection fractions ranged from 30-72%. All patients were selected for OCBP revascularization with 20 patients comsuming no pre-operative ribose and 24 patients given oral D-ribose preoperatively, cardiac indices were measured at baseline and post-operatively. […]

The subject of data set [4] is myocardial dysfunction resulting from globally induced ischemia during cardiac surgical procedures. In kind it is in vivo, human. The text has this: Inclusion criteria were: • Males or females aged 18 or older • Patients with documented coronary artery disease undergoing CABG with an ejection fraction (EF) of ≦35% based on echocardiography, radionuclide imaging or cardiac catheterization done within eight weeks of surgery. (If more than one method was used to evaluate EF during this period, the mean values of the various methods were ≦35%). • Patients undergoing single or double valve replacement with documented coronary artery disease also undergoing CABG; or patients undergoing single or double valve replacement without CABG • Serum creatinine of ≦2.35 mg/dl • For females of childbearing potential, a negative pregnancy test. • Signed consent forms. The test article, placebo or ribose, was dispensed according to computer-generated randomization schedule either for patients undergoing CABG only or for patients undergoing heart valve surgery +/-CABG. All patients received a high dose narcotic anaesthesia technique consisting of either fentanyl (50-100 μg/kg) or sufentanil (10-20 μg/kg) and midazolam. No restriction was placed on the type of anaesthetic agents administered. The anaesthesiologists and surgeons responsible for the care of the patents made the clinical decision to use inotropic support, intra-aortic balloon pump support or post bypass circulatory support based on their knowledge of patients requirements and accepted medical practice and without regard to test article status. The test article infusion was started intravenously at the time of aortic cross clamping and continued until the pulmonary artery catheters introducer was removed or for five days (120) hours whichever occurred first. The surgeons responsible for the clinical care of the patients removed the pulmonary artery catheter cordis without regard to test article stats. Hemodynamic measurements consisting of heart rate, blood pressure, pulmonary artery pressures, pulmonary capillary wedge pressure (PCWP), central venous pressure (CVP) and thermodilution cardiac index (CI) were obtained at the following time intervals: immediately prior to induction of anaesthesia, post induction of anaesthesia prior to sternotomy, post sternotomy prior to initiation of cardiopulmonary bypass, upon successful termination of cardiopulmonary bypass prior to sternal closure and prior to reversal of heparinization with protamine, post closure of the sternum, upon arrival in the intensive care unit and at one or two hour intervals until the pulmonary artery a catheter was removed. Transesophageal echocardiography data (H.P. Sonos OR, 5.0 MHz, Andover, Mass.) was collected at the following time intervals: post induction of anaesthesia prior to sternotomy, and immediately post closure of the sternum. Transthoracic echocardiography (H.P. Sonos 1500. 2.5 MHz, Andover, Mass.) measurements were made on day three and day seven of the study period. For both the transesophageal and transthoracic echocardiograms, the following long axis and short axis mid-papillary area changes were measured in triplicate by acoustic quantification techniques: end diastolic area (EDA), end systolic area (ESA), fractional area change (FAC), +dA/dt and -dA/dt. All area change data were also analyzed by manual off line analysis. EF was also determined off line using a long axis view. In addition, regional wall motion was quantified as the following: normal=1, hypokinetic=2, akinetic=3 and dyskinetic=4. The wall motion index score (WMIS) and percentage normal myocardium were calculated by reading a maximum of sixteen segments. Echocardiography data for evaluating wall motion and area change was analyzed only if greater than 75% of the endocardial border could be visualized through a complete cardiac cycle. […]

For data set [5], the system named is sheep undergoing aortic valve replacement under general anaesthesia.
Data set [6] relates to patients undergoing AVR with aortic cross clamping. Briefly: planned trial of preoperative oral plus intravenous D-Ribose before cross clamping (Example 3). In kind it is in vivo, human. Particulars: oral D-Ribose preloading plus IV 100 mg/kg/hour with D-Glucose, vs placebo. An excerpt: A single-center, randomized, double-blinded placebo-controlled clinical trial was designed to determine if preoperative oral administration of D-Ribose, following by peri-operative and operative intravenous infusion of D-Ribose could improve the ejection fraction and other functional parameters of hearts that are cross-clamped for various cardiac surgical procedures. Thirty (30) patients meeting the inclusion and exclusion criteria and who have signed informed consent forms will be randomized to receive oral D-Ribose (15) or D-Glucose (placebo) (15) for seven or 14 days prior to their surgical procedure and intravenous 5% […] (5% D-Glucose in normal saline, 0.5 mL/kg/hour) or 10% pyrogen-free D-Ribose in 5% D5W at a dose of 100 mg/kg/hour for five (5) days through a pulmonary artery cordis) beginning at the time of aortic cross clamping. […] Patients will be evaluated baseline×2, (once prior to beginning oral test supplement and again within three days prior to surgical procedure), during and after surgery, and at days 1, 5 and 7. […] Patients will be evaluated for eligibility within three days to first test article administration and evaluation will be updated within three days prior to surgery. […] A medication history will be taken and all medications recorded in the case report. […]

In data set [7] the test system is Wistar rats, recovery from general anaesthesia. Nature of the data set: planned rat sham abdominal surgery study under halothane anaesthesia. In kind it is in vivo. Particulars: D-Ribose before, during and after sham operation, vs D-Glucose placebo. As for the experimental part:
Littered-paired Wistar rats will be preconditioned with oral D-Ribose (250 mg/day, 10 animals) as a test drug or D-Glucose (250 mg/day, 10 animals) as a placebo for five days. Following the preconditioning, the rats will be anesthetized with halothane, intubated for artificial respiration and paralyzed with curare. Following general anaesthesia, the rats will be given either the test drug or placebo, intravenously (IV). A two-inch abdominal incision will be made and the viscera will be carefully manipulated to simulate an abdominal exploratory surgery. The incision will be closed and the animals will be held under anaesthesia for one additional hour. Following that hour, anaesthesia will be discontinued and the IV infusion will be halted. The animals will be placed individually in activity cages and their activity will be assessed daily for five days. Test drug or placebo will be added to the drinking water at a dosage of 5% wt/vol. The blinded results will be observed for: first movement (return to consciousness following the sham operation) and daily activity over the first day and next five days. Food and water intake and gastrointestinal function will be measured.

The test system of data set [8] is procedural pain in neonates. Particulars: glucose solution on the tongue; cited from earlier work.
Setting [9] is: second hip replacement, oral ribose after anaesthesia.

`O=C[C@H](O)[C@H](O)[C@H](O)CO` [D-Ribose]: in data set [1], the ATP recovery entry is “enhanced ATP recovery”. Further, in data set [2] (setting [9]), the level of pain result is recorded as “less”; the “recovery to a feeling of alertness and energy” value is listed as “more rapid”. Further, the “recovery to a feeling of alertness and energy” value in data set [2] (second knee replacement, D-Ribose pre- and postoperatively) is “more rapid”. For the same compound, the “greater increase in cardiac indices compared to controls” value in data set [3] came out at 49%. The “patients who developed hypoglycemia (fingerstick glucose<70 mg/dl)” value in data set [4] (both, human, in vivo) was found to be 28%. In data set [4] (human, in vivo), the lowest glucose level amounted to 31 mg/dL, the “mean glucose level in those patients developing hypoglycemia” value was found to be 58 mg/dL and the “neurological or other clinical symptoms associated with hypoglycemia” value is reported as “None of these patients developed neurological or other clinical symptoms”. Moreover, the “mean Day 7 EF” value in data set [4] (ribose treated patients, Day 7, echocardiography, IV 100 mg/kg/hr, p=0.49 vs baseline) turned out to be 41%. For the same compound, in data set [4] (ribose treated patients, baseline, echocardiography, IV 100 mg/kg/hr), the “mean baseline EF” value was found to be 44%. In addition, in data set [4] (ribose treated patients, placebo EF declined, treatment effect p=0.04), the “change of EF from baseline to Day 7” value was “unchanged”. Besides, in data set [5] (in vivo, iv), the “tolerability (metabolic or chemical abnormalities)” value was “no metabolic or chemical abnormalities”. The “time quiet and inactive after extubation” value in data set [5] (sheep given ribose) was “about one”. The “time to eating solid food” value in data set [5] (sheep given ribose, some animals, after the quiet period) is reported as “within the next hour”. The “time to assume a consciousness state upon weaning from the ventilator” value in data set [5] (sheep, vs animals not given ribose) is “faster”. In data set [5] (sheep, vs animals not given ribose, difference not statistically significant), the “time to cardiac arrest with cardioplegia” value was “somewhat faster”. In addition, the “expected myocardial function and recovery” value in data set [6] is “better myocardial function”. For the same compound, the “expected movement after anaesthesia and activity during the following five days” value in data set [7] is “earlier movement after anaesthesia and increased activity”.

On to `O=C[C@H](O)[C@@H](O)[C@H](O)[C@H](O)CO` [glucose, D-Glucose], for which the “degree of pain experienced during venous blood sampling” value in data set [8] is “reduced the degree of pain”.

Values taken from patent publication US20070105787A1, “Use of ribose in recovery from anaesthesia” (priority 2004, published 2007).
